The values below are quoted from earlier work in patent publication US7914804B2, “Slow release pharmaceutical preparation and method of administering same” (Palmaya Pty Ltd, priority 2001, dated 2011).

The structures appear in SMILES notation.

Consider `C=CCN1CC[C@]23c4c5ccc(O)c4O[C@H]2C(=O)CC[C@@]3(O)[C@H]1C5` [Naloxone], for which the t1/2 entry (in the body) is “½”.
`O=C1CC[C@@]2(O)[C@H]3Cc4ccc(O)c5c4[C@@]2(CCN3CC2CC2)[C@H]1O5` [Naltrexone]: where the note is “thought to be”, the “effectiveness relative to Naloxone” value is “twice as effective” and the “lasting in the body relative to Naloxone” value is on record as 8 times.
